According to patent publication US20040241818A1, “Assay” (priority 2000, published 2004):
Read-outs that look alike come from different tables or passages of the source.

Target: T1, truncated Itk (Homo sapiens, UniProt Q08881)
T1 construct: fused on or other part: added start methionine
T1 sequence (Q08881 171-615 limits assumed): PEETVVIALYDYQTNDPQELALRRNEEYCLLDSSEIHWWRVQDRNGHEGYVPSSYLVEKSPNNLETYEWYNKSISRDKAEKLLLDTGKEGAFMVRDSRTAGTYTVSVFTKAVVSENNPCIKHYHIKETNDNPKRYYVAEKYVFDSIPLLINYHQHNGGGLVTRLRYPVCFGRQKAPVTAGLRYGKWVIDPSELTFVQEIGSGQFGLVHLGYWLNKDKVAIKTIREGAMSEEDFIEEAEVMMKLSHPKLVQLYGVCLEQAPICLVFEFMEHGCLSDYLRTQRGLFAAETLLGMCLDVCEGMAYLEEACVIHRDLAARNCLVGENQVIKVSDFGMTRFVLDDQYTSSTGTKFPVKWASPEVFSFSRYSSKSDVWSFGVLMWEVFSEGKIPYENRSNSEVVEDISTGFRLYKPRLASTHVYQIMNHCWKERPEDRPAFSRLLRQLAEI
Experiment: Truncated Itk kinase assay (HTRF)
Format: biochemical
Conditions: UK:ITK, 0.05 mM ATP, 15 min pre-incubation
Procedure: The 100 000 g supernatant was stored at −85° C. Stored lysates were thawed on ice, ATP and MgCl2 (0.1 mM and 10 mM) were added. Following incubation on ice the kinase was diluted in 40 mM HEPES (pH 7.4). The kinase reaction mixture contained 40 mM HEPES (pH 7.4). 10 mM MgCl2, 0.05 mM ATP, 0.0005 mM peptide (Biotin-[…]). The reaction was stopped by the addition of EDTA (25 mM). […] An increase in the level of fluorescence indicates an increase in kinase activity.
Compound Testing in Kinase Assay
Substrates (ATP, src-peptide) added
Reaction stopped with EDTA
HTRF reagents (APC, Eu labelled antibody (antiPY antibody)) added
Read signal on plate reader

[1] = PIC50 is -log10 IC50 in molar, read-out: Average PIC50 (converted)

Compound | IC50 (read-out: Average IC50) [nM] | IC50 [1] [nM]
CNc1ccc(-c2cc(=O)c3c(O)cc(O)cc3o2)cc1 | 813 | 813
O=c1c(O)c(-c2cc(O)c(O)c(O)c2)oc2cc(O)cc(O)c12 | 1660 | 1660
